# Measured values: patent US20250136934A1, “PRODUCTION OF INDUCED MIDBRAIN DOPAMINERGIC PROGENITOR CELLS FROM PLURIPOTENT STEM CELLS” (NUWACELL BIOTECHNOLOGIES CO., LTD., priority 2023, published 2025)
# System: FOXA2+ imDAP cells
# Assay: FACS analysis of FOXA2 expression of imDAP cells derived from hiPSCs
# Assay type: cell-based, human
# Conditions: 4-step protocol, Day 16
# Procedure: • 1. Individualize and collect cells by either Accutase or TrypLE treatment. • 2. Wash cells with 1 ml PBS and pellet cells at 250×g for […]. • 3. Remove supernatant, add ˜200 μl of 4% PFA, mix and fix for 10 min at RT. • 4. Pellet cells at 350×g for 5 min. • 5. Wash cells by 1 ml of FACS buffer and pellet cells at 350×g for 5 min. • 6. Remove supernatant, add 200 μl/tube of FACS buffer/0.1% Triton X, mix for 10 min at RT. • 7. Wash cells by 1 ml of FACS buffer and pellet cells at 350×g for 5 min. • 8. Remove supernatant, add 200 μl/tube of primary antibody diluted in FACS buffer, mix gently, and incubate for 30 min at RT. • 9. Wash cells by 1 ml of FACS buffer and pellet cells at 350×g for 5 min. • 10. Remove supernatant, and add 200 μl of secondary antibody diluted in FACS buffer, mix gently, and incubate for 30 min at RT. • 11. Wash cells by 1 ml of FACS buffer and pellet cells at 300×g for 5 min. • 12. Remove supernatant, add 200 μl of FACS buffer, and run samples on the flow cytometer.
# On Day-1, EB formation (Stage 1) was carried out by dissociating hiPSCs (Nuwacell) to form a single-cell suspension and resuspending it in Epic medium (Nuwacell, #RP01001) containing 10 μM Blebbistatin (MCE, #HY-13441) in T25 flasks on a belly dancer and culturing the cells overnight. On Day 0, ventral midbrain floor plate differentiation (Stage 2) was initiated by changing the medium to a Stage 2-1 differentiation medium containing DMEM: F12/B27 (plus Vitamin A) (98:2, v/v) as basal medium and supplemented with 0.2 μM LDN193189, 10 μM SB431542, 1 μg/mL SHH C24II and 1.25 μM CHIR99021 and culturing the cells for 3 Days. From Day 3, the basal medium was changed to DMEM: F12/B27 (minus Vitamin A) (98:2, v/v), and CHIR concentration was boosted to 7.5 μM until Day 10 (Stage 2-2). SB431542 was withdrawn on Day 4, and SHH C24II was withdrawn on Day 8. From Day 10 (Stage 2-3), the medium was changed to a differentiation medium containing DMEM: F12/B27 (minus Vitamin A) (98:2, v/v) as basal medium and supplemented with 0.2 μM LDN193189 and 3 μM CHIR99021. During the cell culture, each of the differentiation media was replaced every day. On Day 16 (at the end of S2-3), EBs were dissociated for single cells and collected for analysis. The cells of each group were stained with FOXA2-PE antibody (BD, #561689), the percentage of FOXA2+ imDAP cells were analyzed by flow cytometry (FIG. 5). The above experiment was repeated for three times and the derived imDAP cells were named as Lot1, Lot2 and Lot3, respectively.
# On Day-1, EB formation (Stage 1) was carried out by dissociating hiPSCs (Nuwacell) to form a single-cell suspension and resuspending it in Epic medium (Nuwacell, #RP01001) containing 10 μM Blebbistatin (MCE, #HY-13441) in T25 flasks on a belly dancer and culturing the cells overnight. On Day 0, ventral midbrain floor plate differentiation (Stage 2) was initiated by changing the medium to a Stage 2-1 differentiation medium containing DMEM: F12/B27 (plus Vitamin A) (98:2, v/v) as basal medium and supplemented with 0.2 μM LDN193189, 20 μM SB431542, 1.2 μM CHIR99021, and 1 μg/mL SHH C24II or the combination of SHH agonists including 500 ng/mL SHH C24II, 2 μM Purmorphamine and 10 nM SAG and culturing the cells for 3 days. From Day 3, the basal medium was changed to DMEM: F12/B27 (minus Vitamin A) (98:2, v/v). Cells were exposed to Boost-CHIR concentration of 7.5 μM starting from Day 4 to Day 6 (Stage 2-2), followed by a low CHIR concentration of 1.2 μM (Stage 2-3) until Day 10. […]
smiles,measurement,setting,value
"Cc1cnc(-c2cnc(NCCNc3ccc(C#N)cn3)nc2-c2ccc(Cl)cc2Cl)[nH]1 [CHIR, CHIR99021]",percentage of cells positive for FOXA2,low CHIR concentration 1.2 μM in Stage 2-3 (Day 8 to Day 10),91.02%
same,percentage of cells positive for FOXA2,low CHIR concentration 1.4 μM in Stage 2-3 (Day 8 to Day 10),81.89%
same,percentage of cells positive for FOXA2,low CHIR concentration 1.6 μM in Stage 2-3 (Day 8 to Day 10),85.96%
